As usually defined, the AC50 is the concentration at which the activity in the assay is half-maximal.

Bounds are passed on as bounds.

In the assay the target is T1, POLγ W748S + E1143G (Homo sapiens, UniProt P54098, E1143G/W748S).
T1 sequence (P54098 1-1239 W748S/E1143G): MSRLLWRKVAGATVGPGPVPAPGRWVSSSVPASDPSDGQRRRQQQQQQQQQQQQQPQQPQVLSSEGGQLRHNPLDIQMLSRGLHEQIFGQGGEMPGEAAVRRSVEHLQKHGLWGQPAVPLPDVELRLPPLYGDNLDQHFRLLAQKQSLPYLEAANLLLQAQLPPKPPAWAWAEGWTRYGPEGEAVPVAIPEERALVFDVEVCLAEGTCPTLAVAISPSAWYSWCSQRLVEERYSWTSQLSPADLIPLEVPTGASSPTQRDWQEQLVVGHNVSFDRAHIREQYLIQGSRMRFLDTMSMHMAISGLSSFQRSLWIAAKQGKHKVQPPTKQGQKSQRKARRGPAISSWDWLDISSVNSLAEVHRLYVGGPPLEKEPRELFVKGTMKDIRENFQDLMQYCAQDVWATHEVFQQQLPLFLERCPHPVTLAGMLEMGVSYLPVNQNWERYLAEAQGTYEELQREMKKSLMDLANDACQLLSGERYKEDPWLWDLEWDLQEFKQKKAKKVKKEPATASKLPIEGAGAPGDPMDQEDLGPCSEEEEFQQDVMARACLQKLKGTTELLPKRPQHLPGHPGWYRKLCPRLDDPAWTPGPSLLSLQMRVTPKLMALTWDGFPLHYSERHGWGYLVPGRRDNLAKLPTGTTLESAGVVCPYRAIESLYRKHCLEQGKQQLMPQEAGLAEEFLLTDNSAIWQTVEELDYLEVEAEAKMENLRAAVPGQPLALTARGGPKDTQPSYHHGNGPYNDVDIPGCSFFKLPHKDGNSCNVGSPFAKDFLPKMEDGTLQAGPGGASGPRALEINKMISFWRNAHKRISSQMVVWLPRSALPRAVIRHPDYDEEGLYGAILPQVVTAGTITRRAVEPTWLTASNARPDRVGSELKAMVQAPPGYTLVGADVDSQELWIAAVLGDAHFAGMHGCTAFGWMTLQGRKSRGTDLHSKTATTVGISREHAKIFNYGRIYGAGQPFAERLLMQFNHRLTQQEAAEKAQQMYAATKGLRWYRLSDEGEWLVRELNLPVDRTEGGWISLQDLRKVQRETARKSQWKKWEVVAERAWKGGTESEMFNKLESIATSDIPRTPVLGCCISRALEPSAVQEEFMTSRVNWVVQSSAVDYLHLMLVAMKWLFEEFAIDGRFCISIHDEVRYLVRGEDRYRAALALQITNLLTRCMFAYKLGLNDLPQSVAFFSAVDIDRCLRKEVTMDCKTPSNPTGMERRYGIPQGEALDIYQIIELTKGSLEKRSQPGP
T1 sequence (Q9UHN1 1-485 partner): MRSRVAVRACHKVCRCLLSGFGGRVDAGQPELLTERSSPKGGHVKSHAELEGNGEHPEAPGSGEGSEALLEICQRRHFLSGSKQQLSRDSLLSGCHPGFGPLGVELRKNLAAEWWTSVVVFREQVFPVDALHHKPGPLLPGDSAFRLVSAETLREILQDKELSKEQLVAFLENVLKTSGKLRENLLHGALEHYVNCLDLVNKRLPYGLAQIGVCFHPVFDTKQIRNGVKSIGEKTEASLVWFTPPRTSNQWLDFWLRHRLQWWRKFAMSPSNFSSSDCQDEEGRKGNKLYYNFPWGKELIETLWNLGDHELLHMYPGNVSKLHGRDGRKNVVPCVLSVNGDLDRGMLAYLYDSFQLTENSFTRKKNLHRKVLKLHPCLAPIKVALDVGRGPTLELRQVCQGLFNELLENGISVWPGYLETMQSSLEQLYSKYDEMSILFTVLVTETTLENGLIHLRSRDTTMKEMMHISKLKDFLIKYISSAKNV
As to the kind of experiment: DNA polymerization assay, W748S + E1143G mutant. In kind it is biochemical. The settings on record: stimulation of polymerase activity, primed M13mp18 ssDNA, 37° C. 2 hours. The procedure:
DNA Polymerization Assay to Monitor Effects on Human Wildtype POLγ and Four Disease-Causing Mutant Variants of Human POLγ.
The ability of small molecules to stimulate the polymerase activity of POLγ was analyzed in a quantitative fluorescence SYBR Green I assay with fluorescence intensity (FI) readout.
In the presence of dNTPs, wild type human POLγ and mutant derivatives thereof were incubated with single-stranded, circular M13mp18 ssDNA hybridized to a short DNA oligonucleotide that functions as a primer for initiation of DNA synthesis. POLγ and mutant derivatives thereof will extend the primer and use the M13mp18 molecule as a template to synthesize long stretches of double-stranded DNA. SYBR Green I, which is a double-stranded DNA-binding dye, was used to quantify formation of double-stranded DNA in the reaction. When bound to double-stranded DNA, SYBR Green I fluorescence increases by up to 100-fold.
The assay was performed in the 384-well plate format. Upon addition of compounds, changes in double-stranded DNA synthesis activity can be monitored by following effects on fluorescent intensity.
The reactions also contained the accessory POLγB subunit, and the human mitochondrial single-stranded DNA binding protein (mtSSB).
The DNA template mixture used in the assay contained 0.5 nM primed M13 mp18 ssDNA, 400 nM mtSSB, 0.1 mM Tris-HCl (pH 8.0), 0.1 mM dNTP, 10 mM MgCl2, 0.1 mg/mL BSA, 1 mM TCEP solution, and 0.02% Triton X-100. The DNA template mixture for the wild type protein contained either 100 μM dNTP, 1 μM dNTP, or 0.1 μM dNTP, designated in Table 2 as 100 μM, 1 μM, and 0.1 μM, respectfully.
Microplates with compounds (0.1 μL in each well) to be tested in the assay were prepared from 10 mM compound stocks in 100% DMSO, and equal amounts of DMSO without any compound were added to positive and negative control wells.
The protein mixture was dispensed (5 μL into each well) into compound plates and incubated at 37° C. for 15 minutes. After incubation, 5 μL of the DNA template mixture was dispensed into each well. The plates were then incubated at 37° C. for 2 hours.
During incubation, a combined stop buffer and detection reagent solution was prepared. The buffer contained 25 mM EDTA (pH 8.0), 0.02% Triton X-100, and SYBR Green I [Invitrogen] diluted 10,000× (for fluorescent readout). EDTA will stop the enzymatic reaction by chelating magnesium ions.
For `Cc1cc(S(=O)(=O)Nc2ccc(F)c(-c3nccs3)c2)c(C)cc1Cl` [Example 63, 4-chloro-N-(4-fluoro-3-(thiazol-2-yl)phenyl)-2,5-dimethylbenzenesulfonamide], the AC50 was more than 100 µM. With `Cc1cc(S(=O)(=O)N(C)c2cccc(-c3nccs3)c2)c(C)cc1Cl` [Example 22, 4-chloro-N,2,5-trimethyl-N-(3-(thiazol-2-yl)phenyl)benzenesulfonamide] the figure was more than 100 µM. Take `Cc1cc(S(=O)(=O)Nc2csc(-n3cccn3)n2)c(C)cc1Cl` [Example 178, N-(2-(1H-pyrazol-1-yl)thiazol-4-yl)-4-chloro-2,5-dimethylbenzenesulfonamide]: the AC50 is 1 µM. Turning to `Cc1cc(S(=O)(=O)Nc2csc(C(=O)N(C)CC(N)=O)n2)c(C)cc1Cl` [Example 172, N-(2-amino-2-oxoethyl)-4-((4-chloro-2,5-dimethylphenyl)sulfonamido)-N-methylthiazole-2-carboxamide], the concentration at half-maximal activity (AC50) is more than 100 µM. As to `Cc1cc(S(=O)(=O)Nc2csc(-c3cnn(C)c3)n2)c(C)cc1Cl` [Example 183, 4-chloro-2,5-dimethyl-N-(2-(1-methyl-1H-pyrazol-4-yl)thiazol-4-yl)benzenesulfonamide], the AC50 was determined as 0.7 µM. For `Cc1cc(S(=O)(=O)Nc2cc(F)cc(-c3nccs3)c2)c(C)cc1Cl` [Example 62, 4-chloro-N-(3-fluoro-5-(thiazol-2-yl)phenyl)-2,5-dimethylbenzenesulfonamide], the half-maximal activity concentration (AC50) was more than 100 µM.

Consider `Cc1cc(S(=O)(=O)Nc2cn(Cc3ccccc3)cn2)c(C)cc1Cl` [Example 168, N-(1-benzyl-1H-imidazol-4-yl)-4-chloro-2,5-dimethylbenzenesulfonamide], for which the AC50 was more than 100 µM. `Cc1cnc(-c2cccc(NS(=O)(=O)c3cc(C)c(Cl)cc3C)c2)s1` [Example 21, 4-chloro-2,5-dimethyl-N-(3-(5-methylthiazol-2-yl)phenyl)benzenesulfonamide]: the AC50 turned out to be 3 µM. Consider `Cc1cc(S(=O)(=O)Nc2csc(C(=O)N(CC(N)=O)C3CCCC3)n2)c(C)cc1Cl` [Example 177, N-(2-amino-2-oxoethyl)-4-((4-chloro-2,5-dimethylphenyl)sulfonamido)-N-cyclopentylthiazole-2-carboxamide], for which the concentration at half-maximal activity (AC50) was more than 100 µM. With `CC[C@@H]1CCCN1C(=O)c1cccc(NS(=O)(=O)c2cc(C)c(Cl)cc2C)c1` [Example 65, (R)-4-chloro-N-(3-(2-ethylpyrrolidine-1-carbonyl)phenyl)-2,5-dimethylbenzenesulfonamide] the figure was 7 µM; with `Cc1cc(S(=O)(=O)Nc2cccc(-c3cc(C4CC4)[nH]n3)c2)c(C)cc1Cl` [Example 64, 4-chloro-N-(3-(5-cyclopropyl-1H-pyrazol-3-yl)phenyl)-2,5-dimethylbenzenesulfonamide], 4 µM. For `Cc1cc(S(=O)(=O)Nc2cccc(C(=O)N3CCC[C@H]3C(C)C)c2)c(C)cc1Cl` [Example 67, (S)-4-chloro-N-(3-(2-isopropylpyrrolidine-1-carbonyl)phenyl)-2,5-dimethylbenzenesulfonamide], the concentration at half-maximal activity (AC50) turned out to be 21 µM. For `Cc1cc(-c2cccc(NS(=O)(=O)c3cc(C)c(Cl)cc3C)c2)n[nH]1` [Example 66, 4-chloro-2,5-dimethyl-N-(3-(5-methyl-1H-pyrazol-3-yl)phenyl)benzenesulfonamide], the concentration at half-maximal activity (AC50) is 5 µM. Turning to `Cc1cc(S(=O)(=O)Nc2csc(-c3ccccn3)n2)c(C)cc1Cl` [Example 173, 4-chloro-2,5-dimethyl-N-(2-(pyridin-2-yl)thiazol-4-yl)benzenesulfonamide], the half-maximal activity concentration (AC50) worked out at 0.4 µM.

Turning to `Cc1csc(-c2cccc(NS(=O)(=O)c3cc(C)c(Cl)cc3C)c2)n1` [Example 20, 4-chloro-2,5-dimethyl-N-(3-(4-methylthiazol-2-yl)phenyl)benzenesulfonamide], the AC50 stood at 2 µM.

As to `Cc1cc(S(=O)(=O)Nc2cccc(-c3cc[nH]n3)c2)c(C)cc1Cl` [Example 68, N-(3-(1H-pyrazol-3-yl)phenyl)-4-chloro-2,5-dimethylbenzenesulfonamide], the concentration at half-maximal activity (AC50) came to 2 µM. `Cc1cc(S(=O)(=O)Nc2csc(C(=O)N3CCCC3)n2)c(C)cc1Cl` [Example 166, 4-chloro-2,5-dimethyl-N-(2-(pyrrolidine-1-carbonyl)thiazol-4-yl)benzenesulfonamide]: the half-maximal activity concentration (AC50) was 0.4 µM. As to `Cc1cc(S(=O)(=O)Nc2nc(-c3ccccc3)n(C)n2)c(C)cc1Cl` [Example 180, 4-chloro-2,5-dimethyl-N-(1-methyl-5-phenyl-1H-1,2,4-triazol-3-yl)benzenesulfonamide], the AC50 is more than 10 µM. As for `Cc1cc(S(=O)(=O)Nc2cn(-c3ccccc3)cn2)c(C)cc1Cl` [Example 169, 4-chloro-2,5-dimethyl-N-(1-phenyl-1H-imidazol-4-yl)benzenesulfonamide], the figure is more than 100 µM. With `Cc1cc(S(=O)(=O)Nc2csc(-c3ccncc3)n2)c(C)cc1Cl` [Example 176, 4-chloro-2,5-dimethyl-N-(2-(pyridin-4-yl)thiazol-4-yl)benzenesulfonamide] the figure was 0.3 µM; with `Cc1cc(S(=O)(=O)Nc2csc(C3CCOCC3)n2)c(C)cc1Cl` [Example 167, 4-chloro-2,5-dimethyl-N-(2-(tetrahydro-2H-pyran-4-yl)thiazol-4-yl)benzenesulfonamide], 2 µM; with `Cc1cc(S(=O)(=O)Nc2cnn(-c3ccccc3)n2)c(C)cc1Cl` [Example 171, 4-chloro-2,5-dimethyl-N-(2-phenyl-2H-1,2,3-triazol-4-yl)benzenesulfonamide], more than 10 µM. `Cc1cc(S(=O)(=O)Nc2csc(C(=O)N3CCC[C@H]3C)n2)c(C)cc1Cl` [Example 174, (R)-4-chloro-2,5-dimethyl-N-(2-(2-methylpyrrolidine-1-carbonyl)thiazol-4-yl)benzenesulfonamide]: the AC50 came to 0.7 µM.

Values taken from US20260138961A1, “MODULATORS OF MITOCHONDRIAL DNA REPLICATION” (Pretzel Therapeutics, Inc., priority 2022, published 2026).
